# Laboratory results reported in ChEMBL document CHEMBL4507276 (2021).
# Tests used:
# [1] = target: Tyrosine-protein kinase ABL2 (Homo sapiens) (UniProt P42684); settings: Compound concentration 1000.0 nM
# [2] = target: RAC-alpha serine/threonine-protein kinase (Homo sapiens) (UniProt P31749); settings: Compound concentration 1000.0 nM
# [3] = target: RAC-gamma serine/threonine-protein kinase (Homo sapiens) (UniProt Q9Y243); settings: Compound concentration 1000.0 nM
# [4] = target: BMP-2-inducible protein kinase (Homo sapiens) (UniProt Q9NSY1); settings: Compound concentration 1000.0 nM
# [5] = target: Serine/threonine-protein kinase B-raf (Homo sapiens) (UniProt P15056); settings: Compound concentration 1000.0 nM
# [6] = target: Cyclin-dependent kinase 5 (Homo sapiens) (UniProt Q00535); settings: Compound concentration 1000.0 nM
# [7] = target: Dual specificity protein kinase CLK2 (Homo sapiens) (UniProt P49760); settings: Compound concentration 1000.0 nM
# [8] = target: Dual specificity protein kinase CLK3 (Homo sapiens) (UniProt P49761); settings: Compound concentration 1000.0 nM
# [9] = target: Macrophage colony-stimulating factor 1 receptor (Homo sapiens) (UniProt P07333); settings: Compound concentration 1000.0 nM
# [10] = target: Casein kinase I isoform alpha-like (Homo sapiens) (UniProt Q8N752); settings: Compound concentration 1000.0 nM
# [11] = target: Mitogen-activated protein kinase kinase kinase 12 (Homo sapiens) (UniProt Q12852); settings: Compound concentration 1000.0 nM
# [12] = target: Ephrin type-A receptor 5 (Homo sapiens) (UniProt P54756); settings: Compound concentration 1000.0 nM
# [13] = target: Focal adhesion kinase 1 (Homo sapiens) (UniProt Q05397); settings: Compound concentration 1000.0 nM
# [14] = target: Fibroblast growth factor receptor 4 (Homo sapiens) (UniProt P22455); settings: Compound concentration 1000.0 nM
# [15] = test system: Receptor-type tyrosine-protein kinase FLT3 (Homo sapiens), P36888 [K663Q]; settings: Compound concentration 1000.0 nM
# [16] = target: Vascular endothelial growth factor receptor 3 (Homo sapiens) (UniProt P35916); settings: Compound concentration 1000.0 nM
# [17] = target: T1, Beta-adrenergic receptor kinase 1 (Homo sapiens) (UniProt P25098); settings: Compound concentration 1000.0 nM
# T1 sequence (whole entry): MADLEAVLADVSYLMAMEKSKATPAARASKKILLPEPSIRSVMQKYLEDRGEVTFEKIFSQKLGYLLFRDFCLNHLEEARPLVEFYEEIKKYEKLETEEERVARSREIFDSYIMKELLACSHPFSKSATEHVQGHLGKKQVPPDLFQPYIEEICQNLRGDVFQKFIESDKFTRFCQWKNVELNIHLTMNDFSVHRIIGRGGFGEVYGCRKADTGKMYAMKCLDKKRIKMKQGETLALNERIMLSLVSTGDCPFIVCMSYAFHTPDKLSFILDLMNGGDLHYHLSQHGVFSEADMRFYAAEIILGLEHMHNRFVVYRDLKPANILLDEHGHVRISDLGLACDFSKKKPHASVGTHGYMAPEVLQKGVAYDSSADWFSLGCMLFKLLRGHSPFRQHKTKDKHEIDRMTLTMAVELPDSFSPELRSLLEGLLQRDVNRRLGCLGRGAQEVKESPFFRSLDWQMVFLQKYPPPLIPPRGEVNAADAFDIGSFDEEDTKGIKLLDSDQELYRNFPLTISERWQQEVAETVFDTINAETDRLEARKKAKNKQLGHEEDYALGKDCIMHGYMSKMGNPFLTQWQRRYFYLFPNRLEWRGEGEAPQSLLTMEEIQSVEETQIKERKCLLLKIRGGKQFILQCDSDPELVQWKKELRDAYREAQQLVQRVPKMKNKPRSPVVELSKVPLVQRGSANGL
# [18] = target: Interleukin-1 receptor-associated kinase 3 (Homo sapiens) (UniProt Q9Y616); settings: Compound concentration 1000.0 nM
# [19] = target: Mast/stem cell growth factor receptor Kit (Homo sapiens) (UniProt P10721); settings: Compound concentration 1000.0 nM
# [20] = target: Serine/threonine-protein kinase LATS2 (Homo sapiens) (UniProt Q9NRM7); settings: Compound concentration 1000.0 nM
# [21] = target: T2, MAP kinase-activated protein kinase 5 (Homo sapiens) (UniProt Q8IW41); settings: Compound concentration 1000.0 nM
# T2 sequence (whole entry): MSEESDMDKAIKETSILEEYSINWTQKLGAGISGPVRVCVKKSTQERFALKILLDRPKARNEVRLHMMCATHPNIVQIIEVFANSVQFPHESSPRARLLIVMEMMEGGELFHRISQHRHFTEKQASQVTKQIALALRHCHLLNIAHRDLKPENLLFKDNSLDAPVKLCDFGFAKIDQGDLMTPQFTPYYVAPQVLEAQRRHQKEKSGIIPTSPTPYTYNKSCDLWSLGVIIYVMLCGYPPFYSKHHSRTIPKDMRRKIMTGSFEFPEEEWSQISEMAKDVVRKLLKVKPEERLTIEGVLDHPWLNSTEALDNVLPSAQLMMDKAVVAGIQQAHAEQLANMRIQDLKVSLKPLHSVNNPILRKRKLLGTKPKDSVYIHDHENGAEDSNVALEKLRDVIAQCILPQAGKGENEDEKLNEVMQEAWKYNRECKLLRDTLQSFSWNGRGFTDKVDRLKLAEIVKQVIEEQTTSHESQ
# [22] = target: Serine/threonine-protein kinase MARK2 (Homo sapiens) (UniProt Q7KZI7); settings: Compound concentration 1000.0 nM
# [23] = target: Serine/threonine-protein kinase MRCK beta (Homo sapiens) (UniProt Q9Y5S2); settings: Compound concentration 1000.0 nM
# [24] = target: Myosin light chain kinase, smooth muscle (Homo sapiens) (UniProt Q15746); settings: Compound concentration 1000.0 nM
# [25] = target: Ribosomal protein S6 kinase alpha-2 (Homo sapiens) (UniProt Q15349); settings: Compound concentration 1000.0 nM
# [26] = target: SRSF protein kinase 1 (Homo sapiens) (UniProt Q96SB4); settings: Compound concentration 1000.0 nM
# [27] = target: TGF-beta receptor type-2 (Homo sapiens) (UniProt P37173); settings: Compound concentration 1000.0 nM
# [28] = target: TRAF2 and NCK-interacting protein kinase (Homo sapiens) (UniProt Q9UKE5); settings: Compound concentration 1000.0 nM
# [29] = target: Serine/threonine-protein kinase WNK4 (Homo sapiens) (UniProt Q96J92); settings: Compound concentration 1000.0 nM
# [30] = target: Mu-type opioid receptor (Homo sapiens) (UniProt P35372); settings: Compound concentration 10.0 uM
# Casein kinase I isoform alpha-like (Homo sapiens), sequence (Q8N752 whole entry, canonical isoform): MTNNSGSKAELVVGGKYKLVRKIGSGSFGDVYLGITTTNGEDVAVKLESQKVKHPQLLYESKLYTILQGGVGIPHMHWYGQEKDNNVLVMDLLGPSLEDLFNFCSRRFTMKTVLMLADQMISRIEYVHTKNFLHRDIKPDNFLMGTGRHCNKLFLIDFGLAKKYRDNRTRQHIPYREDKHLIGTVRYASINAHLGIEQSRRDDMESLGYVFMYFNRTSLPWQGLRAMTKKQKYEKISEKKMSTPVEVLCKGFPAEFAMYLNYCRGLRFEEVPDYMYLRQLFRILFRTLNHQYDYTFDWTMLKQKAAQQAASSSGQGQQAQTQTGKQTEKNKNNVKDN
# Tyrosine-protein kinase ABL2 (Homo sapiens), sequence (P42684 whole entry): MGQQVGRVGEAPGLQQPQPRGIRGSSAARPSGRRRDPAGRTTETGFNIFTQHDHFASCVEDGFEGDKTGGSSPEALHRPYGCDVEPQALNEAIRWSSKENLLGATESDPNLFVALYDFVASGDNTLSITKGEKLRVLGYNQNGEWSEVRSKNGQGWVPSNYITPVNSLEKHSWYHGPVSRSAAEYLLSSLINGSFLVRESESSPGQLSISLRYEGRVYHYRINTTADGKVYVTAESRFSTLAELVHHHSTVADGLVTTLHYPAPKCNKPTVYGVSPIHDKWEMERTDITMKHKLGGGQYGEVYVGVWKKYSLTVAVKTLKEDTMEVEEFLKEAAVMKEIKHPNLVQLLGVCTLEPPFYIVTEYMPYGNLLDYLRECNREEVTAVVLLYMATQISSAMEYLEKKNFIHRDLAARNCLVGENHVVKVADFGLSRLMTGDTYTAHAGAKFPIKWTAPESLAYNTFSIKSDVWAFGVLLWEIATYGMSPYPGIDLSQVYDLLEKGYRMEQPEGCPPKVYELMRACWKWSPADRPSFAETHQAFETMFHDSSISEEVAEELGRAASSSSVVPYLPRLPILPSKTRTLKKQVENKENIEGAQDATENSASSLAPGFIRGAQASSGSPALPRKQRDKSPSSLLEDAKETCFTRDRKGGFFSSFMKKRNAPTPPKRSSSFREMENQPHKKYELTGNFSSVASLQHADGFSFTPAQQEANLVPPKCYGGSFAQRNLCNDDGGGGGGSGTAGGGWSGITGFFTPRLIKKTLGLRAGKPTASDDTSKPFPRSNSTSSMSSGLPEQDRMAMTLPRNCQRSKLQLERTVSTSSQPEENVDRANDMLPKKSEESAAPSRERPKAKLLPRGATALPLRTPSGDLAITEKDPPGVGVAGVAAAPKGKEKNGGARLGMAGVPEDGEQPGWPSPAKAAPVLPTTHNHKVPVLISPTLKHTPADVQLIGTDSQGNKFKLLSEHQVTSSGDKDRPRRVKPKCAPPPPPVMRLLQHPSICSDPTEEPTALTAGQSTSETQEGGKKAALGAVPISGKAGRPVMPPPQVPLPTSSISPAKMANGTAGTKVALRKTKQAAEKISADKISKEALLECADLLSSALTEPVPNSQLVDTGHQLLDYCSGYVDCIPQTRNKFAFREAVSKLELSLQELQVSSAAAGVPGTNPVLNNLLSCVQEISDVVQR
# Serine/threonine-protein kinase WNK4 (Homo sapiens), sequence (Q96J92 whole entry): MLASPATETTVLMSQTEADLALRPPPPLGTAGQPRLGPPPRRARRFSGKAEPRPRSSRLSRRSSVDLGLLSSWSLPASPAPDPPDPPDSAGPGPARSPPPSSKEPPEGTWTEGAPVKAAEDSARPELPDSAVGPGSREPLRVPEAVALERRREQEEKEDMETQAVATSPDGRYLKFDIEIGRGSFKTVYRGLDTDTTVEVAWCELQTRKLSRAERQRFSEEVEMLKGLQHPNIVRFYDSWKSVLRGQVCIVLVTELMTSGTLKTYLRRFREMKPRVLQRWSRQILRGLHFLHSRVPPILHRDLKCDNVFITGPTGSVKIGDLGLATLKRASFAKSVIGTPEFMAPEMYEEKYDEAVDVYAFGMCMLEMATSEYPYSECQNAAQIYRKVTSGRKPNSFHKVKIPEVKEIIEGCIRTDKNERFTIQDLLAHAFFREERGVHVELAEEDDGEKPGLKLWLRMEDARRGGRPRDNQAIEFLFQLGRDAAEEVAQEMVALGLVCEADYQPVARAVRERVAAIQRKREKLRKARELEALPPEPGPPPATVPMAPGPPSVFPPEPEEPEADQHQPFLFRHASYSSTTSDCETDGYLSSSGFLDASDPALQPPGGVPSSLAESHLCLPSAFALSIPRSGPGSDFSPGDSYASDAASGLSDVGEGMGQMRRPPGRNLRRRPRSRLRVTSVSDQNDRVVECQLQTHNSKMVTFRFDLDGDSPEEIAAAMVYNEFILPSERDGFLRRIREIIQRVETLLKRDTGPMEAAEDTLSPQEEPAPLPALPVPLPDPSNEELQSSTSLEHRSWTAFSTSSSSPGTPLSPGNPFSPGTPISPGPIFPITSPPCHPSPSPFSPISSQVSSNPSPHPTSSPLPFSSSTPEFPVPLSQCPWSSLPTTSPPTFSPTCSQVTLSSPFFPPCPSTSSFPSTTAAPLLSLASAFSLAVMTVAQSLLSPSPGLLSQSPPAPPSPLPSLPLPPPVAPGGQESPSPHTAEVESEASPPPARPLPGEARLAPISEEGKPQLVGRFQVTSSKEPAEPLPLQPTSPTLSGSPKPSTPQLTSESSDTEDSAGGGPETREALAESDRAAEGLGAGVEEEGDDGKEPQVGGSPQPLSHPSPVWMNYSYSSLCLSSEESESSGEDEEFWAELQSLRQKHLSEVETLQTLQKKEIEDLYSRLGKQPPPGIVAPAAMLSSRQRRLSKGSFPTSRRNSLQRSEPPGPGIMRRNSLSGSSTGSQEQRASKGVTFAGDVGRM
# Mast/stem cell growth factor receptor Kit (Homo sapiens), sequence (P10721 whole entry): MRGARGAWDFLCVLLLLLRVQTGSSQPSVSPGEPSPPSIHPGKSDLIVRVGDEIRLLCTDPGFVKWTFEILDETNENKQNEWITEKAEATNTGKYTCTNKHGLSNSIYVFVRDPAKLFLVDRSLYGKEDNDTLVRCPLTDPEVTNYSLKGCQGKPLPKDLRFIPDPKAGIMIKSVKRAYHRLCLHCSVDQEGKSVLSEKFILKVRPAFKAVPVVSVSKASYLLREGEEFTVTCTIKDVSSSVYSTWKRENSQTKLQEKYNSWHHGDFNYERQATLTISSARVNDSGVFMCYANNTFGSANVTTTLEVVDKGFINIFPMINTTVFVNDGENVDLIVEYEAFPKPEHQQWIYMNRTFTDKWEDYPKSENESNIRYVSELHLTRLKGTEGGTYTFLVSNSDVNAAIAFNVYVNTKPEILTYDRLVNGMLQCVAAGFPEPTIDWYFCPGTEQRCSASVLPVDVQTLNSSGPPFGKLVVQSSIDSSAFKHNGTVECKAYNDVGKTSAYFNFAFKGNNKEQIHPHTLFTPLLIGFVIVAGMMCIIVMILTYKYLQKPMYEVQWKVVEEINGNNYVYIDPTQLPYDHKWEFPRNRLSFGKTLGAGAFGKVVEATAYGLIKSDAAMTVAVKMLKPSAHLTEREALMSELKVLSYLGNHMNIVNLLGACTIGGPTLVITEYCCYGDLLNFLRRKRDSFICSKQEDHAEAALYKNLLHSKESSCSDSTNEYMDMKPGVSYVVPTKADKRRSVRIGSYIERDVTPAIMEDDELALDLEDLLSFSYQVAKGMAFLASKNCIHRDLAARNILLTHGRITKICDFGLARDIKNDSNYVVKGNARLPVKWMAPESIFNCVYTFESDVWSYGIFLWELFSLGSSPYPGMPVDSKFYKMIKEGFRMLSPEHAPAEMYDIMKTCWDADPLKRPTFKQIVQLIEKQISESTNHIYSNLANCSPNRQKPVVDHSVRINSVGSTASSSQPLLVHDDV
# BMP-2-inducible protein kinase (Homo sapiens), sequence (Q9NSY1 whole entry, looked up): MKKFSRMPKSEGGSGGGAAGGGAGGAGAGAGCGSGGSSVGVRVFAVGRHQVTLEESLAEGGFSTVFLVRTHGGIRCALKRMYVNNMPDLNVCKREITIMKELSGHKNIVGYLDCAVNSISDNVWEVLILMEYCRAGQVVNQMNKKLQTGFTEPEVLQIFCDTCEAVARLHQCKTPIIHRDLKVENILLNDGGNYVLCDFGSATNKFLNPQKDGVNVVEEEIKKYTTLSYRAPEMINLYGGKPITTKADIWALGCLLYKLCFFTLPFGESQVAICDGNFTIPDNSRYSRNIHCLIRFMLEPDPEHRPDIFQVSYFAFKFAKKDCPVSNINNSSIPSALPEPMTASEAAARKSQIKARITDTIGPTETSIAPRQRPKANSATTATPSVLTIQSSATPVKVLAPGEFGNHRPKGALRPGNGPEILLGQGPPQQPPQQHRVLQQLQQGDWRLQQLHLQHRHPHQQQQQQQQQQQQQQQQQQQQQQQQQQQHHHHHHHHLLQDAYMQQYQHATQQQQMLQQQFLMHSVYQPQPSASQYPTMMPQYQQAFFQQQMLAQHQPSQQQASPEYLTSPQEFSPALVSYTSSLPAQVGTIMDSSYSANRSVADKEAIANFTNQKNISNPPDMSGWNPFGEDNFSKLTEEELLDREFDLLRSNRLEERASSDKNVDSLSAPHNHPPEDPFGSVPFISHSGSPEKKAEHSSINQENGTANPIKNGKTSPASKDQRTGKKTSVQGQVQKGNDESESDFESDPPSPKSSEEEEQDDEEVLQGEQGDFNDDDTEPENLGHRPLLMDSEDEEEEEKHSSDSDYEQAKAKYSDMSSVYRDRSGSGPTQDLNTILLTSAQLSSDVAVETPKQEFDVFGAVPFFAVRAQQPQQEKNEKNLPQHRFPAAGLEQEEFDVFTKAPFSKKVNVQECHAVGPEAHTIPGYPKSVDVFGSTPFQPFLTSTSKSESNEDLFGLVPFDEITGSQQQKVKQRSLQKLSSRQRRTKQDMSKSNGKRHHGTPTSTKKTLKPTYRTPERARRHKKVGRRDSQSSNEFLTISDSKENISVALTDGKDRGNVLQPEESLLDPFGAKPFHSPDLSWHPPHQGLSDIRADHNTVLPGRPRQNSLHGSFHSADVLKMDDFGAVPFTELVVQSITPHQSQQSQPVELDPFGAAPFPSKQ
Structure (SMILES),residual activity [1],residual activity [2],residual activity [3],residual activity [4],residual activity [5],residual activity [6],residual activity [7],residual activity [8],residual activity [9],residual activity [10],residual activity [11],residual activity [12],residual activity [13],residual activity [14],residual activity [15],residual activity [16],residual activity [17],residual activity [18],residual activity [19],residual activity [20],further results
CN(C)C(=O)Cn1cc(-c2nc(C3(c4ccc(-c5cnc(N)nc5)cc4)CC3)no2)cn1 [BI 0153],84%,97%,87%,99%,88%,100%,94%,100%,84%,98%,100%,41%,100%,100%,100%,95%,67%,96%,93%,46%,residual activity [21]: 92%; residual activity [22]: 92%; residual activity [23]: 85%; residual activity [24]: 72%; residual activity [25]: 100%; residual activity [26]: 93%; residual activity [27]: 100%; residual activity [28]: 100%; residual activity [29]: 80%; inhibition [30]: 12.6%
CN(C)C(=O)Cn1cc(-c2nc([C@@](C)(c3ccc(-c4cnc(N)nc4)cc3)C3CC3)no2)cn1 [BI 665915],100%,94%,100%,100%,82%,100%,96%,100%,96%,100%,80%,100%,100%,88%,94%,88%,78%,100%,87%,74%,residual activity [21]: 94%; residual activity [22]: 100%; residual activity [23]: 99%; residual activity [24]: 84%; residual activity [25]: 100%; residual activity [26]: 100%; residual activity [27]: 88%; residual activity [28]: 100%; residual activity [29]: 93%; inhibition [30]: 4.55%
